Laboratory results reported in patent US6653340B1, “Compounds useful in the complement, coagulat and kallikrein pathways and method for their preparation” (BioCryst Pharmaceuticals, Inc., priority 1997, dated 2003).
Read-outs that look alike come from different tables or passages of the source.

How the values were obtained:
C1s = target: T1, C1s (Homo sapiens, UniProt P09871); assay: C1s esterolytic inhibition assay (Z-Lys-SBzl substrate); type: biochemical; settings: Z-Lys-SBzl 1.29 mM, C1s 3 to 13 nM; read-out: Cls (Serine Protease Inhibitory Data, IC50)
T1 sequence (P09871 16-688): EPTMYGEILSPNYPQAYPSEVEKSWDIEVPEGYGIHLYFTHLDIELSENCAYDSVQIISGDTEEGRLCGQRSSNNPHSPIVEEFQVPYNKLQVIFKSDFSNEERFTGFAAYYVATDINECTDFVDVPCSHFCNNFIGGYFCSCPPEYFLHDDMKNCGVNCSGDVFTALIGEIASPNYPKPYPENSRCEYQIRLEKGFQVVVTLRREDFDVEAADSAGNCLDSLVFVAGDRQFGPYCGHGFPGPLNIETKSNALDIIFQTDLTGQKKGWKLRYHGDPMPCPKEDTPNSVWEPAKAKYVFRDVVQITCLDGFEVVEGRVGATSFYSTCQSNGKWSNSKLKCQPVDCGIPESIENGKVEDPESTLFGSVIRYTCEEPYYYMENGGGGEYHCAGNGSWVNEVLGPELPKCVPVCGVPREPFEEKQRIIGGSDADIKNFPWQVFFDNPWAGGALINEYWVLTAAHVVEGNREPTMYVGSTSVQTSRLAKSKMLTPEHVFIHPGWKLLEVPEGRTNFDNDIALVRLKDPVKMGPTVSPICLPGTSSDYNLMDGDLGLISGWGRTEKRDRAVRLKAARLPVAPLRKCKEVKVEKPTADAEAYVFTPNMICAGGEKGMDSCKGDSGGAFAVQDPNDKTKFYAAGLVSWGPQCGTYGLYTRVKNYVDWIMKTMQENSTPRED
Procedure: (§1) The compounds to be tested were dissolved in a stock solution of DMSO at 10.0 or 100 mM. A portion of this stock solution was added to assay buffer in a final volume of 100 μL containing the enzyme of interest. Controls included buffer alone and enzyme solutions to which DMSO was added. Substrate was added to the reaction wells immediately or after incubation at room temperature. The reaction rates were measured spectrophotometrically by the generation of product at 405 nm for 200 sec. Background absorbance at 690 nm was measured and subtracted from the absorbance at 405 nm for each well.
(§2) The reaction rate for enzyme alone was compared to the rate of enzyme in the presence of inhibitor and the percent inhibition was calculated as shown below:
(§3) Percent Inhibition=[Rate without inhibitor−Rate with inhibitor)/(Rate without inhibitor)]×100
(§4) Compounds in the examples were tested a minimum of three times.
C1s esterolytic activity was assayed using a modification of the technique originally described by Kam using Z-Lys-SBzl, 1.29 mM as substrate and C1s at 3 to 13 nM.

Thrombin = Thrombin (Homo sapiens, UniProt P00734); assay: Thrombin inhibition assay (N-Benzoyl-Phe-Val-Arg-p-nitroanilide substrate); type: biochemical; settings: thrombin 12.5 U/ml, pH 7.5; read-out: Thrombin (Serine Protease Inhibitory Data, IC50)
Procedure: as §1, §2, §3, §4
(§5) Thrombin was assayed at 12.5 U/ml using 0.37 mM N-Benzoyl-Phe-Val-Arg-p-nitroanilide (Svendsen, L.; Blomback B.; Blomback, M.; Olsson, P. I. Substrate for determination of trypsin, thrombin and thrombin-like enzymes. Folia Haematol. 1972, 98, 446-454.) as the substrate in 100 mM HEPES, 10 mM CaCl2, 10% DMSO, pH 7.5. Factor Xa, 0.5 U/mL, was assayed in 50 mM HEPES, 150 mM NaCl, 10 mM CaCl2, pH 8.0 using Chromozyme X, 0.17 mM, as the substrate. Plasmin (0.004 units/mL), factor XIIa ([…]) and kallikrein (0.02 units/mL were assayed using modifications of the techniques originally described by McRae, et al. (Biochemistry. 1981, 20, 7196-7206). The assays were run in 200 mM triethanolamine, pH 7.8 and 100 mM Tris-HCl, 100 mM EDTA, […] using Z-Lys-SBzl, 0.13 mM and […], 0.16 mM, as substrates, respectively.

Factor Xa = Factor Xa (Homo sapiens, UniProt P00742); assay: Factor Xa inhibition assay (Chromozyme X substrate); type: biochemical; settings: Factor Xa 0.5 U/mL, pH 8.0; read-out: Xa (Serine Protease Inhibitory Data, IC50)
Chain of Factor Xa (P00742 235-488 limits assumed): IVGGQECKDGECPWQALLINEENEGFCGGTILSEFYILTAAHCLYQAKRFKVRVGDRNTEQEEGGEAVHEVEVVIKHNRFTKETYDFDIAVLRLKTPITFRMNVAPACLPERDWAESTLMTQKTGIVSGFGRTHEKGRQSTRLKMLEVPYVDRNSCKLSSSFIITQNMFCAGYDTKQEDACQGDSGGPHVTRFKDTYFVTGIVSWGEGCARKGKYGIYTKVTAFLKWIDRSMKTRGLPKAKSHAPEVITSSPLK
Chain of Factor Xa (P00742 41-179 partner limits assumed): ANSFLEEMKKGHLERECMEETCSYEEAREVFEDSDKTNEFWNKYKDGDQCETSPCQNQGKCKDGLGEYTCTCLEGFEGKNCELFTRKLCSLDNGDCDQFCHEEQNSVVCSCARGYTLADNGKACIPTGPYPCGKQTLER
Procedure: as §1, §2, §3, §4, §5

kallikrein = kallikrein (Homo sapiens, UniProt P03952); assay: Kallikrein inhibition assay (thioester substrate); type: biochemical; settings: kallikrein 0.02 units/mL; read-out: Kallikrein (Serine Protease Inhibitory Data, IC50)
Chain of kallikrein (P03952 whole entry): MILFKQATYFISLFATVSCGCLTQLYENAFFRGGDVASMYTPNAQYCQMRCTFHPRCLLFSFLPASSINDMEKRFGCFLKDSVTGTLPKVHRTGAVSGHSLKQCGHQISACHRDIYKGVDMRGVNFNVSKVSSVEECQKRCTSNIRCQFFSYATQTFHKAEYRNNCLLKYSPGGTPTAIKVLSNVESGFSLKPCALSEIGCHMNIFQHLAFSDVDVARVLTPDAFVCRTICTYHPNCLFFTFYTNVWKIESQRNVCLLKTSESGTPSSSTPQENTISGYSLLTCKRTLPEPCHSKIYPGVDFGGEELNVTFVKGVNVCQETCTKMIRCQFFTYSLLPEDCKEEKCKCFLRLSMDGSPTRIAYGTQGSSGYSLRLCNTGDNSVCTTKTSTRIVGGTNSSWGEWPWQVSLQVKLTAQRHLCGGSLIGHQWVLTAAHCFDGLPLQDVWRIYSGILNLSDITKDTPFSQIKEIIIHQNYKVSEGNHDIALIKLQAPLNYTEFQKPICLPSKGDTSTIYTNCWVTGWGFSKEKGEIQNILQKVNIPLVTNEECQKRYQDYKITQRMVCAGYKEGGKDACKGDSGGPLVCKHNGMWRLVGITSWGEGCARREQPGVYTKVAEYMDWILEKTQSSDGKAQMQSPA
Procedure: as §1, §2, §3, §4, §5

factor XIIa = target: T2, factor XIIa (Homo sapiens, UniProt P00748); assay: Factor XIIa inhibition assay (thioester substrate); type: biochemical; settings: read-out: XIIa (Serine Protease Inhibitory Data, IC50)
T2 sequence (P00748 373-615 limits assumed): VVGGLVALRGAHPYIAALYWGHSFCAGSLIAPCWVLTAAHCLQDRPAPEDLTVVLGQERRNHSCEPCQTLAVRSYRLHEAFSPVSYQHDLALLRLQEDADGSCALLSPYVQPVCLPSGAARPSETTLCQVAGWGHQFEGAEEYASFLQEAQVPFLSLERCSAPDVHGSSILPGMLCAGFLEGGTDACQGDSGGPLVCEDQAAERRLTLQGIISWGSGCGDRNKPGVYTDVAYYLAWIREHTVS
Procedure: as §1, §2, §3, §4, §5

Factor B = Factor B (Homo sapiens, UniProt P00751); settings: Ikari, N. et al. Immunology 49: 685-691, 1983; cited from earlier work
Chain of Factor B (P00751 26-764): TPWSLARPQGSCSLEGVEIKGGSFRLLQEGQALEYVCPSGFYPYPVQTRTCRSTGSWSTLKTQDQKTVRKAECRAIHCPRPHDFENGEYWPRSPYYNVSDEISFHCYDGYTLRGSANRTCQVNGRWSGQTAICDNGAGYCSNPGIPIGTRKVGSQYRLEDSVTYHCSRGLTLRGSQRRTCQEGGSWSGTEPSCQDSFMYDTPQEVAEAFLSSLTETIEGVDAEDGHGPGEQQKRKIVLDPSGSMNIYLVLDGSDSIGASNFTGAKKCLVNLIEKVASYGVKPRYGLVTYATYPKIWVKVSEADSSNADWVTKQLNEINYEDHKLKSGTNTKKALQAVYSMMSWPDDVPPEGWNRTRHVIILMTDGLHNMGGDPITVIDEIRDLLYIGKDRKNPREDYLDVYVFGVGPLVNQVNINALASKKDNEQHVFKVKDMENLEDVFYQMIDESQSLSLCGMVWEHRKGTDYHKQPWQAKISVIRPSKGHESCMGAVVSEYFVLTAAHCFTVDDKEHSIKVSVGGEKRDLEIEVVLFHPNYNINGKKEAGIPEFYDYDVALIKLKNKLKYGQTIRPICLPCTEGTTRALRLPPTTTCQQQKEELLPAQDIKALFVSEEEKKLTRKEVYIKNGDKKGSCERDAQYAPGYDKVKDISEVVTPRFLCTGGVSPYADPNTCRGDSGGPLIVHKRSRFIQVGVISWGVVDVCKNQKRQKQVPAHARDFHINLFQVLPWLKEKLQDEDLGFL

Factor D [1] = target: T3, Factor D (Homo sapiens, UniProt P00746); settings: Inagi, R et al, Nephron 66: 285-290, 1994; cited from earlier work
T3 sequence (P00746 26-253): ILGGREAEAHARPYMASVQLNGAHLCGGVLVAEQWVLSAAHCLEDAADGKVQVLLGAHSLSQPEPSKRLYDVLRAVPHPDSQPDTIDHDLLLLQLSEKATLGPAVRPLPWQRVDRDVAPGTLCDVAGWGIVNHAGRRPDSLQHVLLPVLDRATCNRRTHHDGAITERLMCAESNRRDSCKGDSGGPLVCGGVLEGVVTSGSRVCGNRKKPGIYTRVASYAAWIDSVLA

Factor D [2] = target: T3, Factor D; assay: Factor D esterolytic inhibition assay (Z-Lys-SBzl substrate); type: biochemical; set-up: Factor D was purified from the urine of a patient with Fanconi syndrome by ion exchange chromatography; from tissue; host or cells: urine of a patient with Fanconi syndrome; settings: Z-Lys-SBzl 1.29 mM, pH 7.5, 10% DMSO; read-out: Factor D (Serine Protease Inhibitory Data, IC50)
Source text: A modification of the procedure of Volanakis (Volankis, J. E.; Barnum, S. R.; Kilpatrick, J. M. Purification and properties of human factor D. Methods in Enzymol. 1993, 223, 82-97) for purification of Factor D was utilized as described by Yamauchi (Yamauchi, Y.; Stevens, J. W.; Macon, K. J.; Volanakis, J. E. Recombinant and native zymogen forms of human complement factor D. J. Immunol. 1994, 152, 3645-3653. Briefly, Factor D was purified from the urine of a patient with Fanconi syndrome by ion exchange chromatography using BioRex 70 and two rounds of ion-exchange chromatography in a Pharmacia FPLC system using a HR5/5 Mono S column.
as §1, §2, §3, §4
An established esterolytic assay for the measurement of Factor D activity and inhibition of Factor D activity was used (Kam, C. M.; McRae, B. J.; Harper, J. W.; Niemann, M. A.; Volanakis, J. E.; Powers, J. C. Human complement proteins D, C2, and B Active site mapping with peptide thioester substrates. J Biol. Chem. 1987, 262, 3444-3451). […] Hydrolysis of this compound by Factor D liberated a free sulfhydryl group which is then reacted with 5,5′-dithiobis(2nitrobenzoic acid) producing an intense yellow color (Habeeb, A. F. S. A. Reaction of protein sulfhydryl groups with Ellman's Reagent. Methods in Enzymol. 1976, 25, 457-464.). The assays were performed in 96 well microtiter plates and rates of hydrolysis were monitored at 405 nm in a Anthos Labtec HT2 plate reader. Hydrolysis rates were reported as change in mOD/min. The assay was conducted in 100 mM HEPES, 500 mM NaCl, pH 7.5 containing 10% DMSO in a final volume of 200 μL per well.

IC50 (C1s): 22 nM
IC50 (Thrombin): 678 nM
IC50 (Factor Xa): 1010 nM
IC50 (kallikrein): 12 nM
IC50 (factor XIIa): 114 nM
IC50 (Factor D [2]): 11000 nM
SMILES: N=C(N)c1ccc2cc(OC(=O)c3ccc(N=C(N)N)cc3)ccc2c1 [nafamostat, 6′-amidino-2-naphthyl-p-guanidinobenzoate, reference compound]
IC50 (Factor B): 60000 nM
IC50 (Factor D [1]): 25000 nM
